Laboratory results published in patent US20230149324A1, “COMPOSITIONS COMPRISING THYMOL AND AMINO ACIDS FOR USE IN THE TREATMENT OF INFLAMMATORY OR FUNCTIONAL INTESTINAL DISORDERS” (VETAGRO INTERNATIONAL S.R.L., priority 2020, published 2023).

Tests used:
CB2 mRNA = assay: Gene expression of cannabinoid receptor CB2 in duodenal and ileal mucosa of weaned piglets fed thymol (real-time PCR); format: in vivo, pig; settings: d14, compared to the control group; for CB2 mRNA level, duodenum: P=0.004; for CB2 mRNA level, ileum: P=0.0162
Procedure: (§1) At the end of the study, 8 animals from each treatment group were sacrificed, samples were collected, and analysed. Duodenal and ileal mucosal scrapings were collected. The duodenum and ileum were longitudinally cut to expose the mucosa, washed with a phosphate-buffered saline solution to remove mucus and digesta, then scraped gently, packed, immediately frozen in liquid nitrogen and stored at -80° C. until the analyses of gene and protein expression. Gene expression was analysed using the method reported by […] et al. [The Journal of Nutrition. 2011; 141:2139-45]. Duodenal and ileal scraping samples obtained on d14 of the study were disrupted by grinding them in liquid nitrogen with mortar and pestle, and then homogenised using a TissueLyser (Qiagen, Hilden, Germany). Total RNA was isolated using a NucleoSpin® RNA Kit (Macherey-Nagel, Duren, Germany) according to the manufacturer's instructions. Genomic DNA contamination was removed by treating the samples with the deoxyribonuclease supplied in the extraction kit ([…], RNase-free; Macherey-Nagel). The RNA yield and quality were determined spectrophotometrically by measuring the absorbance at 260 and 280 nm (A260 and A280 nm, respectively) (Microvolume Mode with SmartPath® Technology, Denovix). One microgram of RNA was reverse transcribed using the iScript cDNA Synthesis Kit (Bio-Rad Laboratories Inc., Hercules, Calif., USA) according to the manufacturer's instructions. Real-time PCR was performed using an iCycler Thermal Cycler system and SybrGreen Supermix (Bio-Rad Laboratories Inc.). The thermocycling protocol provided for an initial denaturation step for 1 minute and 30 seconds at 95° C., followed by 40 denaturation cycles at 95° C. for 15 seconds, and 30 seconds of annealing and extension at 60° C. After amplification, a melt curve analysis was performed for all samples, with slow heating from 55° C. to 95° C. at a rate of 0.5° C./s to validate the absence of non-specific products. […] The average threshold cycle (CT) was determined for each gene of interest, and the geometric average was calculated for HK by assuming that CT is the number of cycles required to reach a fixed arbitrary threshold. Delta CT was calculated, then a modification of the 2^-ΔΔCT method [Livak K J, et al., Methods 2001; 25:402-8] was used to analyse the relative expression (fold changes), which was calculated relative to the control group. […] Animals were blocked in a completely randomised design and data were analysed using GraphPad Prism® software (GraphPad Software, Inc., La Jolla, Calif., USA). Data were analysed using one-way ANOVA followed by Tukey's post hoc test to detect differences among treatments. […]

TRPV1 mRNA = assay: Gene expression of gut chemosensing marker TRPV1 in duodenal and ileal mucosa of weaned piglets fed thymol (real-time PCR); format: in vivo, pig; settings: for TRPV1 mRNA level, ileum: d14, compared to the control group, P=0.0183
Procedure: as §1, with “Denovix).” for “Denovix). One microgram of RNA was reverse transcribed using the iScript cDNA Synthesis Kit (Bio-Rad Laboratories Inc., Hercules, Calif., USA) according to the manufacturer's instructions. Real-time PCR was performed using an iCycler Thermal Cycler system and SybrGreen Supermix (Bio-Rad Laboratories Inc.). The thermocycling protocol provided for an initial denaturation step for 1 minute and 30 seconds at 95° C., followed by 40 denaturation cycles at 95° C. for 15 seconds, and 30 seconds of annealing and extension at 60° C. After amplification, a melt curve analysis was performed for all samples, with slow heating from 55° C. to 95° C. at a rate of 0.5° C./s to validate the absence of non-specific products.”

FAAH mRNA = assay: Gene expression of ECS enzyme FAAH in duodenal and ileal mucosa of weaned piglets fed thymol (real-time PCR); format: in vivo, pig
Procedure: (§2) At the end of the study, 8 animals from each treatment group were sacrificed, samples were collected, and analysed. Duodenal and ileal mucosal scrapings were collected. The duodenum and ileum were longitudinally cut to expose the mucosa, washed with a phosphate-buffered saline solution to remove mucus and digesta, then scraped gently, packed, immediately frozen in liquid nitrogen and stored at -80° C. until the analyses of gene and protein expression. Gene expression was analysed using the method reported by […] et al. [The Journal of Nutrition. 2011; 141:2139-45]. […] The RNA yield and quality were determined spectrophotometrically by measuring the absorbance at 260 and 280 nm (A260 and A280 nm, respectively) (Microvolume Mode with SmartPath® Technology, Denovix). […] The average threshold cycle (CT) was determined for each gene of interest, and the geometric average was calculated for HK by assuming that CT is the number of cycles required to reach a fixed arbitrary threshold. Delta CT was calculated, then a modification of the 2^-ΔΔCT method [Livak K J, et al., Methods 2001; 25:402-8] was used to analyse the relative expression (fold changes), which was calculated relative to the control group. […] Animals were blocked in a completely randomised design and data were analysed using GraphPad Prism® software (GraphPad Software, Inc., La Jolla, Calif., USA). […]

CB1 mRNA = assay: Gene expression of cannabinoid receptor CB1 in duodenal and ileal mucosa of weaned piglets fed thymol (real-time PCR); format: in vivo, pig; settings: d14, compared to the control group; for CB1 mRNA level, ileum: P=0.0054
Procedure: as §1, with “Denovix).” for “Denovix). One microgram of RNA was reverse transcribed using the iScript cDNA Synthesis Kit (Bio-Rad Laboratories Inc., Hercules, Calif., USA) according to the manufacturer's instructions. Real-time PCR was performed using an iCycler Thermal Cycler system and SybrGreen Supermix (Bio-Rad Laboratories Inc.). The thermocycling protocol provided for an initial denaturation step for 1 minute and 30 seconds at 95° C., followed by 40 denaturation cycles at 95° C. for 15 seconds, and 30 seconds of annealing and extension at 60° C. After amplification, a melt curve analysis was performed for all samples, with slow heating from 55° C. to 95° C. at a rate of 0.5° C./s to validate the absence of non-specific products.”

[1] = test system: OR1G1 (Olfactory receptor 1G1) mRNA; assay: Gene expression of gut chemosensing marker OR1G1 in duodenal and ileal mucosa of weaned piglets fed thymol (real-time PCR); format: in vivo, pig; settings: d14, compared to the control group
Procedure: as §2

[2] = piglets, 14-day experiment, up to 510 mg thymol/kg feed
Procedure: […] piglets (Duroc—Large White) weaned at 28 days of age and with a body weight (BW) of 7.71±1.00 kg were divided into 40 pens (4 piglets per pen, castrated males and females were placed in separate pens) and randomly assigned to one of the following experimental groups (n=32): control group fed with the basal diet (T1), a group fed with the basal diet supplemented with 25.5 mg of thymol/kg feed (T2), a group fed with the basal diet supplemented with 51 mg of thymol/kg feed (T3), a group fed with the basal diet supplemented with 153 mg of thymol/kg feed (T4) and a group fed with the basal diet supplemented with 510 mg of thymol/kg feed (T5). Thymol was provided in a form embedded (microencapsulated) in a lipid matrix (Vetagro SpA, Reggio Emilia, Italy). Concentrations of thymol were selected to meet or exceed the upper limit of inclusion in food and feed established by the European Agency for the Evaluation of Medicinal Products and for the feed. […] The health condition of the animals was monitored during the study. […] Growth parameters, such as FI, ADFI, ADG and F:G (FI—feed intake; ADFI—Average daily feed intake; ADG—Average daily gain; F:G—Feed to gain ratio), were measured in the animals housed in each pen on day 14 (d14) of the experiment.

[3] = group T4, 153 mg of thymol/kg feed
[4] = group T5, 510 mg of thymol/kg feed

Cc1ccc(C(C)C)c(O)c1 [thymol]
CB2 mRNA level, duodenum (CB2 mRNA; [3]): Significantly increased | CB2 mRNA level, ileum (CB2 mRNA; [3]): Significantly increased | CB2 mRNA level, duodenum (CB2 mRNA; [4]): Significantly increased | CB2 mRNA level, ileum (CB2 mRNA; [4]): Significantly increased | TRPV1 mRNA level, ileum (TRPV1 mRNA; group T4, 153 mg thymol/kg feed): increased | TRPV1 mRNA level, ileum (TRPV1 mRNA; group T5, 510 mg thymol/kg feed): increased | TRPV1 mRNA level, duodenum (TRPV1 mRNA; group T5, 510 mg thymol/kg of feed, d14, P=0.0382): increased | FAAH mRNA level, ileum (FAAH mRNA; group T4, 153 mg of thymol/kg feed, d14, compared to the control group, P=0.0028): significantly increased | FAAH mRNA level, duodenum (FAAH mRNA; thymol groups T2-T5 (25.5-510 mg/kg feed), d14): Differences in FAAH mRNA levels were not observed | CB1 mRNA level, ileum (CB1 mRNA; [3]): significantly increased | CB1 mRNA level, ileum (CB1 mRNA; [4]): significantly increased | CB1 mRNA level, duodenum (CB1 mRNA; group T5, 510 mg of thymol/kg feed, P=0.0209): significantly increased | OR1G1 mRNA level, ileum ([1]; group T4, 153 mg thymol/kg feed, P=0.0235): expressed at higher levels | OR1G1 mRNA level, duodenum ([1]; group T5, 510 mg thymol/kg feed, P=0.0210): expressed at higher levels | mortality [2]: no mortality was recorded
